The assay concerns the target T1, Interleukin-1 receptor-associated kinase 4 (Homo sapiens, UniProt Q9NWZ3).
T1 sequence (Q9NWZ3 whole entry): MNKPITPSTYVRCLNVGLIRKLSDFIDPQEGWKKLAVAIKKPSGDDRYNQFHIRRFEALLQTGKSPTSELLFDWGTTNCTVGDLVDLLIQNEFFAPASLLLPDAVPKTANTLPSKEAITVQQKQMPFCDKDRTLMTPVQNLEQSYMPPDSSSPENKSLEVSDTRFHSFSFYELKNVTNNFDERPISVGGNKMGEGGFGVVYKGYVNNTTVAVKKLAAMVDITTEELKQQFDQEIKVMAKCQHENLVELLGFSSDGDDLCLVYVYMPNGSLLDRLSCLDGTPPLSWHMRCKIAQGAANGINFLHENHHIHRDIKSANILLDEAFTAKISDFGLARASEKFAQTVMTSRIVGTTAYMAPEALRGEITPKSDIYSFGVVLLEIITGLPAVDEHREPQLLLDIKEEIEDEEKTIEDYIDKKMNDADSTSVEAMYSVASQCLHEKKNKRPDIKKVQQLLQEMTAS
Put plainly: IRAK4 Biochemical Assay: IRAK4 enzyme (Carna Biosciences, Chuo-ku, Kobe, Japan) activity was measured by detecting phosphorylated peptide substrate formation using an antibody against the phosphorylated peptide substrate. This is a time-resolved fluorescence resonance energy transfer (TR-FRET) immunoassay, based on the STK1 KinEASE Assay (Cisbio, Bedford, Mass.). The assay was designed as a simple two-step, endpoint assay (a 5 μl enzyme reaction followed by 5 μl stop and detect Solution) performed in ProxiPlate-384 Plus plates (Perkin Elmer, Waltham, Mass.). Staurosporine, a non-selective kinase inhibitor was used as a positive control. Compounds diluted in DMSO were spotted into 384 well plates using a Labcyte® Echo 550 Liquid Handling System prior to addition of IRAK4 enzyme and peptide substrate. Reaction solutions were delivered using a Multi-Flo (Bio-Tek Instruments). The enzyme and peptide solution was incubated with compound for 15 minutes at room temp before the reaction was initiated by the addition of ATP. The standard 5 μl reaction mixture contained 500 μM ATP, 2 μM peptide (STK1 Peptide), 0.75 nM of IRAK4 in reaction buffer (50 mM HEPES, pH 7.0, 0.02% NaN3, 0.01% BSA, 0.1 mM Orthovanadate, 5 mM MgCl2, 0.025% NP-40, 1 mM DTT). […]. (TR-FRET usually uses a lanthanide donor and a delayed reading to cut background.)

What is called IC50 is the point on the concentration scale where inhibition reaches its midpoint.

Turning to `COC(=O)NC[C@H]1C[C@H](Nc2cc(-c3ccc4cc(C#N)cnn34)ncc2-c2cn([C@H]3CC[C@H](NC(=O)N4CCOCC4)CC3)nn2)C1`, the IC50 is under 1 nM.
